The results in this text go back to patent US6528525B1, “Amidocarboxylic acid derivatives” (Sankyo Company, Limited, priority 1998, dated 2003).

The test deals with hyperglycemic male KK mice. As to the kind of experiment: Action in depressing blood glucose (Method 1). Type of test: in vivo. To be noted: compound admixed with powder feed at 0.01% (ca. 10 mg/kg/day) for three days, plasma glucose vs control group; for inhibition in vivo at 10 mg/kg/day: Mus musculus, po, 72 h, read-out: Rate of hypoglycemic activity (%) (blood glucose depression rate). The protocol: Action in Depressing Blood Glucose (Method 1)
Each compound, admixed with powder feed F-2 (Funabashi Farm) was administered to hyperglycemic male KK mice each having a body weight of 40 g or more at a rate of 0.01% (ca. 10 mg/kg/day) for three days. Meanwhile, mice of a control group were fed with the powder feed only. Then, a blood sample was collected from the caudal vein of each mouse under no anesthesia and centrifuged. The blood glucose in the plasma thus obtained was determined using Glucoloader F (Product of A & T Co., Ltd.).
The blood glucose depression rate were estimated from the following equation:
Blood glucose depression rate (%)=[(Blood glucose in Control group−Blood glucose in administered group)/Blood glucose in Control group]×100

For `CC(C)c1ccc(OC(C)(Cc2ccc(OCCNC(=O)c3ccc(-c4ccccn4)cc3)cc2)C(=O)O)cc1` (stereo not shown) [Example 18, 2-(4-Isopropylphenoxy)-2-methyl-3-[4-[2-(4-pyridine-2-ylbenzoylamino)ethoxy]phenyl]propionic acid], the inhibition in vivo at 10 mg/kg/day amounted to 68%. As for `CCCCC(Cc1ccc(OCCCNC(=O)c2ccc(-c3ccccn3)cc2)cc1)C(=O)O` (stereo not shown) [Example 70, 2-Butyl-3-[4-[3-(4-pyridine-2-ylbenzoylamino)propoxy]phenyl]propionic acid], the inhibition in vivo at 10 mg/kg/day was found to be 23%. For `CC(C)c1ccc(O[C@@H](Cc2ccc(OCCNC(=O)c3ccc(-c4ccccn4)cc3)cc2)C(=O)O)cc1` [Example 104, (S)-2-(4-Isopropylphenoxy)-3-[4-[2-(4-pyridine-2-ylbenzoylamino)ethoxy]phenyl]propionic acid], the inhibition in vivo at 10 mg/kg/day stood at 73%. For the compound `O=C(NCCOc1ccc(CC(Oc2ccc(F)cc2)C(=O)O)cc1)c1ccc(-c2ccccn2)cc1` (stereo not shown) [Example 119, 2-(4-Fluorophenoxy)-3-[4-[2-(4-pyridine-2-ylbenzoylamino)ethoxy]phenyl]propionic acid], the inhibition in vivo at 10 mg/kg/day stood at 49%. With `CCCCC(Cc1ccc(OCCNC(=O)c2ccc(N(CC)CC)cc2)cc1)C(=O)O` (stereo not shown) [Example 62, 2-Butyl-3-[4-[2-(4-N,N-dietylaminobenzoylamino)ethoxy]phenyl]propionic acid], the “Rate of hypoglycemic activity (%) (blood glucose depression rate)” value was determined as 16%. Regarding `O=C(NCCOc1ccc(CC(Oc2ccccc2)C(=O)O)cc1)c1ccc(-c2ccc(F)cc2)cc1` (stereo not shown) [Example 78, 3-[4-[2-(4′-Fluorobiphenyl-4-carbonylamino)ethoxy]phenyl]-2-phenoxypropionic acid], the inhibition in vivo at 10 mg/kg/day came to 53%. On to `CCCC(Cc1ccc(OCCNC(=O)c2ccc(-c3ccccn3)cc2)cc1)C(=O)O` (stereo not shown) [Example 74, 2-Propyl-3-[4-[2-(4-pyridine-2-ylbenzoylamino)ethoxy]phenyl]propionic acid], for which the inhibition in vivo at 10 mg/kg/day turned out to be 60%. The same measure, in the same setting: with `CCCCC(Cc1ccc(OCCNC(=O)c2ccc(-c3ccc(C(=O)O)cc3)cc2)cc1)C(=O)O` (stereo not shown) [Example 30, 2-Butyl-3-[4-[2-(4′-carboxybiphenyl-4-carbonylamino)ethoxy]phenyl]propionic acid] the figure was 18%.

`O=C(NCCOc1ccc(CC(Oc2ccccc2)C(=O)O)cc1)c1ccc(-c2ccccc2)cc1` (stereo not shown) [Example 76, 3-[4-[2-(Biphenyl-4-carbonylamino)ethoxy]phenyl]-2-phenoxypropionic acid]: the inhibition in vivo at 10 mg/kg/day was found to be 50%.

Consider `CC(C)c1ccc(OC(Cc2ccc(OCCNC(=O)c3ccc(OCC(F)(F)C(F)F)nc3)cc2)C(=O)O)cc1` (stereo not shown) [Example 103, Sodium 3-[4-[2-[2-(2,2,3,3-tetrafluoropropoxy)pyridine-5-carbonylamino]ethoxy]phenyl]-2-(4-isopropylphenoxy)propionate], for which the inhibition in vivo at 10 mg/kg/day is 48%.

Take `O=C(NCCOc1ccc(CC(Oc2ccccc2)C(=O)O)cc1)c1ccc(-c2ccc(C(F)(F)F)cc2)cc1` (stereo not shown) [Example 82, 3-[4-[2-(4′-Trifluoromethylbiphenyl-4-carbonylamino)ethoxy]phenyl]-2-phenoxypropionic acid]: the inhibition in vivo at 10 mg/kg/day was 32%. Same read-out and setting: the result for `CC(C)c1ccc(OC(Cc2ccc(OCCNC(=O)c3ccc(-c4ccc(N(C)C)cn4)cc3)cc2)C(=O)O)cc1` (stereo not shown) [Example 113, 3-[4-[2-[4-(3-Dimethylaminopyridine-6-yl)benzoylamino]ethoxy]-phenyl]-2-(4-isopropylphenoxy)propionic acid] reads 64%. In the case of `O=C(NCCOc1ccc(CC(Oc2ccccc2)C(=O)O)cc1)c1ccc(-c2ccccn2)cc1` (stereo not shown) [Example 8, 2-Phenoxy-3-[4-[2-(4-pyridine-2-ylbenzoylamino)ethoxy]phenyl]propioric acid], the “Rate of hypoglycemic activity (%) (blood glucose depression rate)” value is given as 22%.
